Test results reported in publication PMC6449356 (Scientific Reports, 2019).
≈ marks a conversion by molar mass, not a printed value. Like-named read-outs stand apart in the source and are kept apart here.

Legend:
[1] = test system: S. aureus wild-type strains (12); test: MIC50/MIC90, broth microdilution (CLSI), strain panel; assay type: cell-based, Staphylococcus aureus; details: wild-type S. aureus (12 strains)
Source text: (§1) resistance mechanisms using broth microdilution methods (CLSI).
(§2) Cadazolid Lin e zolid Vancom yc in
(§3) lin e zolid-nonsusceptible (26**)
(§4) * The 12 tested wild-type control strains include methicillin [oxacillin]-resistant [MRSA]
(§5) strains [41.7%] from JMI Laboratories (North Liberty, Iowa).
(§6) ** The 26 clinical strains tested included 12 cfr-positive and 14 23S rRNA mutants [G2576U].

[2] = test system: S. aureus linezolid-nonsusceptible strains carrying cfr (12); test: as above; assay type: cell-based, Staphylococcus aureus; details: linezolid-nonsusceptible S. aureus carrying cfr (12 strains)
Source text: as §1, §2, §3, §4, §5, §6

[3] = test system: S. aureus linezolid-nonsusceptible G2576U mutants (14); test: as above; assay type: cell-based, Staphylococcus aureus; details: linezolid-nonsusceptible S. aureus G2576U mutants (14 strains)
Source text: as §1, §2, §3, §4, §5, §6

[4] = test system: cell-free extracts from E. coli and from S. aureus linezolid-susceptible and -resistant strains; test: In vitro translation in cell-free extracts, summary over the three extracts; assay type: biochemical; details: range over extracts from E. coli and S. aureus linezolid-susceptible and -resistant strains
Method: (§7) The cell-free protein synthesis reactions were carried out based on a procedure published for E. coli[37] and adapted for S. aureus as described previously for C. difficile. To improve expression from extracts derived from S. aureus, the firefly luciferase reporter gene was resynthesized with codons optimized for S. aureus at GeneArt AG (Regensburg, Germany) and cloned into plasmid pSP-luc_NF Fusion (Promega), replacing the existing luciferase gene. In addition, a 180-bp-long BglII-HindIII promoter fragment of gene abrB310 derived from Clostridium acetobutylicum was synthesized and cloned upstream of the codon-optimized luciferase gene for efficient translation, leading to plasmid pSPAbrlac-luc_Saur. […]
(§8) Test compounds diluted in 8% DMSO were added to reaction buffer containing bacterial extract and SP6 RNA polymerase, yielding final concentrations of 100, 20, 4, 0.8, 0.16, 0.04, 0.008, 0.0016, and 0 µM. […] The luminescence was immediately measured after addition of the luciferase substrate Bright Glo (Promega, E2610) using a Tecan SpectralFluor Plus Reader (GeniosPro) instrument (parameters: integration time 1000 ms; intensity normal). Fifty percent inhibitory concentrations (IC50s) were calculated from the data.

[5] = test system: cell-free extract from E. coli ATCC 25922 (coupled transcription/translation); test: In vitro transcription/translation (IVTT) assay, E. coli extract; assay type: biochemical, Escherichia coli; details: E. coli ATCC 25922 extract; average value and range of three independent experiments
[6] = test system: cell-free extract from S. aureus S1 (LZD^R, homozygous G2576U in 23S rRNA); test: In vitro transcription/translation (IVTT) assay, S. aureus S1 LZD-resistant extract; assay type: biochemical, Staphylococcus aureus; details: average value and range of three independent experiments
Method: as §7, §8

[7] = test system: cell-free extract from S. aureus ATCC 29213 (coupled transcription/translation); test: In vitro transcription/translation (IVTT) assay, S. aureus wt extract; assay type: biochemical, Staphylococcus aureus; details: S. aureus ATCC 29213 extract, average value and range of three independent experiments
Method: The cell-free protein synthesis reactions were carried out based on a procedure published for E. coli[37] and adapted for S. aureus as described previously for C. difficile. To improve expression from extracts derived from S. aureus, the firefly luciferase reporter gene was resynthesized with codons optimized for S. aureus at GeneArt AG (Regensburg, Germany) and cloned into plasmid pSP-luc_NF Fusion (Promega), replacing the existing luciferase gene. In addition, a 180-bp-long BglII-HindIII promoter fragment of gene abrB310 derived from Clostridium acetobutylicum was synthesized and cloned upstream of the codon-optimized luciferase gene for efficient translation, leading to plasmid pSPAbrlac-luc_Saur. S. aureus bacterial extracts were prepared according to a simplified E. coli procedure using a FastPrep®-24 instrument from Lucerna Chem AG (Cat No. 6004-500) and lysing matrix B (Lucerna Chem, Cat No. 116911100; silica spheres < 100 µm).
Test compounds diluted in 8% DMSO were added to reaction buffer containing bacterial extract and SP6 RNA polymerase, yielding final concentrations of 100, 20, 4, 0.8, 0.16, 0.04, 0.008, 0.0016, and 0 µM. Samples were mixed and pre-incubated for 10 min at RT before 100 ng plasmid pBestluc (E. coli) or 500 ng plasmid pSPAbrlac-luc_Saur (S. aureus) was added. After mixing, the plate was incubated at RT for 90 min. The luminescence was immediately measured after addition of the luciferase substrate Bright Glo (Promega, E2610) using a Tecan SpectralFluor Plus Reader (GeniosPro) instrument (parameters: integration time 1000 ms; intensity normal). Fifty percent inhibitory concentrations (IC50s) were calculated from the data.

[8] = test system: S. aureus ATCC 29213; test: MIC, micro dilution (CLSI); assay type: cell-based; details: Staphylococcus aureus, ATCC29213, median value of at least 3 determinations
Method: (§9) The MICs were determined using the micro dilution method recommended by the Clinical and Laboratory Standards Institute (CLSI).

[9] = test system: S. aureus S1 LZD^R; test: MIC, micro dilution (CLSI); assay type: cell-based; details: Staphylococcus aureus
Method: as §9

[10] = test system: E. coli ATCC 25922; test: MIC, micro dilution (CLSI); assay type: cell-based; details: Escherichia coli, ATCC25922
Method: as §9

[11] = test system: E. coli MG1655 tolC::kan; test: MIC, micro dilution (CLSI); assay type: cell-based; details: Escherichia coli
Method: as §9

O=C(O)c1cn(C2CC2)c2cc(N3CCC(O)(COc4ccc(N5C[C@H](CO)OC5=O)cc4F)CC3)c(F)cc2c1=O [Cadazolid]
MIC50 [1]: 0.25 | MIC90 [1]: 0.25 | MIC50 [2]: 0.25 | MIC90 [2]: 0.5 | MIC50 [3]: 0.5 | MIC90 [3]: 0.5 | IC50 [4]: 240 to 330 nM | IC50 [5]: 240 nM | IC50 [6]: 330 nM | IC50 [7]: 320 nM | MIC [8]: 0.5 µg/mL (≈ 0.854 µM) | MIC [9]: 1 µg/mL (≈ 1.71 µM) | MIC ([10]; E. coli ATCC 25922, median value of at least 3 determinations, read-out: MIC): 8 µg/mL (≈ 13.7 µM) | MIC [11]: ≤ 0.063 µg/mL

CC(=O)NC[C@H]1CN(c2ccc(N3CCOCC3)c(F)c2)C(=O)O1 [Linezolid]
MIC50 [1]: 1 | MIC90 [1]: 1 | MIC50 [2]: 8 | MIC90 [2]: 8 | MIC50 [3]: 8 | MIC90 [3]: 16 | IC50 [5]: 4030 nM | IC50 [6]: 7030 nM | IC50 [7]: 2610 nM | IC50 ([7]; listed as LZD): 2600 nM | MIC [8]: 2 µg/mL (≈ 5.93 µM) | MIC [9]: 32 µg/mL (≈ 94.9 µM) | MIC [10]: > 32 µg/mL | MIC [11]: 8 µg/mL (≈ 23.7 µM)

CN[C@H](CC(C)C)C(=O)N[C@H]1C(=O)N[C@@H](CC(N)=O)C(=O)N[C@H]2C(=O)N[C@H]3C(=O)N[C@H](C(=O)N[C@H](C(=O)O)c4cc(O)cc(O)c4-c4cc3ccc4O)[C@H](O)c3ccc(c(Cl)c3)Oc3cc2cc(c3O[C@@H]2O[C@H](CO)[C@@H](O)[C@H](O)[C@H]2O[C@H]2C[C@](C)(N)[C@H](O)[C@H](C)O2)Oc2ccc(cc2Cl)[C@H]1O [Vancomycin]
MIC50 [1]: 1 | MIC90 [1]: 1 | MIC50 [2]: 0.5 | MIC90 [2]: 1 | MIC50 [3]: 1 | MIC90 [3]: 1
